Assay: Toxicokinetics and tissue disposition of total [14C] radioactivity after a single intratracheal dose of [14C]-PCB52 (0.157 mg/kg) in pregnant rats at GD 11±1
Format: in vivo, Sprague–Dawley rats
Procedure: Female Sprague–Dawley rats (8 weeks old) weighing 237–269.7 g (mean = 247.5 g) (Envigo RMS, LLC, Indianapolis, IN) were used for this study. All animal experiments were performed following the protocols evaluated and approved by the University of Iowa Institutional Animal Care and Use Committee (approval number 3091097). After arrival, the animals were acclimated for 7 days. The animals were housed in a light and temperature-controlled environment with ad libitum access to food and water during quarantine and throughout the study. Timed pregnancy was achieved by harem mating. , Briefly, one male and two female rats were placed together in the evening and checked for vaginal plug the following day. If vaginal plug was present, the male was removed from the breeding cage, and the gestation day 0 (GD 0), 0-day post coitum was assigned. Pregnancies were confirmed by ultrasound scan at GD 9. The dams were exposed at GD 11 (±1 day) to capture the period of early organogenesis and hormonal function, which falls within week 3 of human embryonic development. ,− On the day of the experiment, pregnant rats were intratracheally administered an average of 40 μg (range, 35–45 μg) of [^14C]-PCB52 in 100 μL of exposure solution. Although the dose used in this study exceeded the tolerable daily intake (TDI) of PCBs for healthy individuals, which is 1.6 μg per day for an individual weighing 80 kg, the use of higher acute doses has been established in toxicological studies intended for risk assessment. The intratracheal instillation method was chosen for administering [^14C]-PCB52 to represent inhalation exposures, capture exhaled concentration, and efficiently utilize the limited availability of the cost-intensive radiolabeled PCB52. , Although inhalation exposure would better represent real-world exposures to airborne LC-PCBs, it would not allow us to accurately measure the amount of PCB52 exhaled into the air after exposure and is experimentally infeasible. […] All intratracheal instillations were done under light anesthesia, achieved using a 4% isoflurane concentration via a Fortec vaporizer (Cyprane, Keighley, UK). The animals recovered from anesthesia within 1 min. Subsequently, the animals were housed within a cylindrical glass chamber measuring 2 L in volume, equipped with glass drainage mechanisms to facilitate urine collection and a metallic screen to segregate urine from feces (as in Figure S1). Air was drawn from the chamber at 6.0 L/min through a cartridge containing the XAD-2 polymeric resin to capture any exhaled [^14C]-PCB52. For periods longer than 24 h postexposure, exposed dams were placed in a metabolic cage, which was fitted with a cartridge containing XAD-2 to capture exhaled [^14C]-PCB52 as in other end points.
Maternal blood, urine, and feces samples were collected immediately before and at 0.21, 1.67, 12, 24, 48, and 96 h after lung dosing. The exposed dams were euthanized using 4% isoflurane, followed by cervical dislocation and exsanguination via a cardiac puncture. Euthanasia was consistently performed during the light cycle. Dams’ fur was wiped and analyzed for radioactivity. Using the retro-orbital blood collection method, 0.5–1.5 mL ([…] of an exposed pregnant rat’s body weight) of blood sample was collected from each of the dams until the individual dams were necropsied for whole-body tissue harvesting. At the end of the exposure period, the chamber’s interior walls were rinsed separately with water and acetone/hexane (25 – 45 mL) and wiped to measure residues. From the collected whole blood samples, 100 μL were aliquoted into three vials each, and the remaining blood was allowed to clot at room temperature before being centrifuged to yield serum. The placentas, developing fetuses, and whole-body tissue samples were harvested immediately before exposure and at 0.21, 1.67, 12, 24, and 96 h postexposure. […]

[1] = AF (amniotic fluid)/MS (maternal serum)
[2] = Adipose tissue, 0.21 h post-exposure
[3] = Adipose tissue, 1.67 h post-exposure
[4] = Adipose tissue, 12 h post-exposure
[5] = Brown adipose, 0.21 h post-exposure
[6] = Brown adipose, 1.67 h post-exposure
[7] = Brown adipose, 12 h post-exposure
[8] = Brown adipose, 24 h post-exposure
[9] = Brown adipose, 96 h post-exposure
[10] = Esophagus, 0.21 h post-exposure
[11] = Esophagus, 1.67 h post-exposure
[12] = Mammary glands, 0.21 h post-exposure
[13] = Mammary glands, 1.67 h post-exposure
[14] = Mammary glands, 12 h post-exposure
[15] = Mammary glands, 24 h post-exposure
[16] = Mammary glands, 96 h post-exposure
[17] = Matter in duodenum, 0.21 h post-exposure
[18] = Matter in duodenum, 1.67 h post-exposure
[19] = Matter in duodenum, 12 h post-exposure
[20] = Matter in duodenum, 24 h post-exposure
[21] = Matter in duodenum, 96 h post-exposure
[22] = Matter in intestine, 0.21 h post-exposure
[23] = Matter in intestine, 1.67 h post-exposure
[24] = Matter in intestine, 12 h post-exposure
[25] = Matter in intestine, 24 h post-exposure
[26] = Matter in intestine, 96 h post-exposure
[27] = Matter in stomach, 0.21 h post-exposure
[28] = Matter in stomach, 1.67 h post-exposure
[29] = Matter in stomach, 12 h post-exposure
[30] = Matter in stomach, 24 h post-exposure
[31] = Matter in stomach, 96 h post-exposure

Clc1ccc(Cl)c(-c2cc(Cl)ccc2Cl)c1 [PCB52, 2,2′,5,5′-Tetrachlorobiphenyl]
AUC0‑∞ ratio [1]: 0.050
AUC0–96h ratio [1]: 0.053
C max ratio [1]: 0.043
AUC0–96h ratio (AF (amniotic fluid)/brain): 0.079
C max ratio (AF (amniotic fluid)/brain): 0.071
AUC_%Extrap (Adipose tissue): 42.32%
Terminal elimination half-life (t1/2) (Adipose tissue): 72.85 h
Conc. per mg wet tissue [2]: 8.78 dpm/mg
Percent tissue distribution [2]: 10.92%
Conc. per mg wet tissue [3]: 19.77 dpm/mg
Percent tissue distribution [3]: 33.81%
Conc. per mg wet tissue [4]: 27.29 dpm/mg
Percent tissue distribution [4]: 26.32%
Percent tissue distribution (Adipose tissue, 24 h post-exposure): 28.25%
AUC_%Extrap (Adrenal gland): 74.40%
Terminal elimination half-life (t1/2) (Adrenal gland): 253.59 h
AUC_%Extrap (Bladder): 40.50%
Terminal elimination half-life (t1/2) (Bladder): 57.81 h
Conc. per mg wet tissue (Brain, 0.21 h post-exposure): 1.44 dpm/mg
Percent tissue distribution (Brain, 0.21 h post-exposure): 0.79%
Conc. per mg wet tissue (Brain, 1.67 h post-exposure): 4.90 dpm/mg
Percent tissue distribution (Brain, 1.67 h post-exposure): 0.52%
Conc. per mg wet tissue (Brain, 12 h post-exposure): 0.67 dpm/mg
Percent tissue distribution (Brain, 12 h post-exposure): 0.08%
Conc. per mg wet tissue (Brain, 24 h post-exposure): 0.64 dpm/mg
Percent tissue distribution (Brain, 24 h post-exposure): 0.07%
Conc. per mg wet tissue (Brain, 96 h post-exposure): 0.67 dpm/mg
Percent tissue distribution (Brain, 96 h post-exposure): 0.10%
Conc. per mg wet tissue (Bronchi, 0.21 h post-exposure): 81.91 dpm/mg
Percent tissue distribution (Bronchi, 0.21 h post-exposure): 0.66%
Conc. per mg wet tissue (Bronchi, 1.67 h post-exposure): 33.51 dpm/mg
Percent tissue distribution (Bronchi, 1.67 h post-exposure): 0.20%
Conc. per mg wet tissue (Bronchi, 12 h post-exposure): 20.05 dpm/mg
Percent tissue distribution (Bronchi, 12 h post-exposure): 0.10%
Conc. per mg wet tissue (Bronchi, 24 h post-exposure): 18.87 dpm/mg
Percent tissue distribution (Bronchi, 24 h post-exposure): 0.08%
Conc. per mg wet tissue (Bronchi, 96 h post-exposure): 1.44 dpm/mg
Percent tissue distribution (Bronchi, 96 h post-exposure): 0.01%
Conc. per mg wet tissue [5]: 40.87 dpm/mg
Percent tissue distribution [5]: 0.21%
Conc. per mg wet tissue [6]: 120.53 dpm/mg
Percent tissue distribution [6]: 0.87%
Conc. per mg wet tissue [7]: 27.78 dpm/mg
Percent tissue distribution [7]: 0.00%
Conc. per mg wet tissue [8]: 23.09 dpm/mg
Percent tissue distribution [8]: 0.18%
Conc. per mg wet tissue [9]: 4.17 dpm/mg
Percent tissue distribution [9]: 0.00%
AUC_%Extrap (Colon tissue): 22.17%
Terminal elimination half-life (t1/2) (Colon tissue): 40.46 h
Conc. per mg wet tissue (Colon, 0.21 h post-exposure): 9.24 dpm/mg
Percent tissue distribution (Colon, 0.21 h post-exposure): 0.35%
Conc. per mg wet tissue (Colon, 1.67 h post-exposure): 5.24 dpm/mg
Percent tissue distribution (Colon, 1.67 h post-exposure): 0.28%
Conc. per mg wet tissue (Colon, 12 h post-exposure): 5.56 dpm/mg
Percent tissue distribution (Colon, 12 h post-exposure): 0.41%
Conc. per mg wet tissue (Colon, 24 h post-exposure): 9.18 dpm/mg
Percent tissue distribution (Colon, 24 h post-exposure): 0.51%
Conc. per mg wet tissue (Colon, 96 h post-exposure): 1.87 dpm/mg
Percent tissue distribution (Colon, 96 h post-exposure): 0.16%
AUC_%Extrap (Duodenum): 14.10%
Terminal elimination half-life (t1/2) (Duodenum): 34.84 h
Tmax (Duodenum): ≤ 0.21 h
Conc. per mg wet tissue (Duodenum, 0.21 h post-exposure): 21.37 dpm/mg
Percent tissue distribution (Duodenum, 0.21 h post-exposure): 0.71%
Conc. per mg wet tissue (Duodenum, 1.67 h post-exposure): 8.50 dpm/mg
Percent tissue distribution (Duodenum, 1.67 h post-exposure): 0.25%
Conc. per mg wet tissue (Duodenum, 12 h post-exposure): 3.28 dpm/mg
Percent tissue distribution (Duodenum, 12 h post-exposure): 0.12%
Conc. per mg wet tissue (Duodenum, 24 h post-exposure): 4.69 dpm/mg
Percent tissue distribution (Duodenum, 24 h post-exposure): 0.17%
Conc. per mg wet tissue (Duodenum, 96 h post-exposure): 0.83 dpm/mg
Percent tissue distribution (Duodenum, 96 h post-exposure): 0.05%
AUC_%Extrap (Esophagus): 11.71%
Terminal elimination half-life (t1/2) (Esophagus): 46.31 h
Conc. per mg wet tissue [10]: 72.35 dpm/mg
Percent tissue distribution [10]: 0.51%
Conc. per mg wet tissue [11]: 5.67 dpm/mg
Percent tissue distribution [11]: 0.06%
Conc. per mg wet tissue (Esophagus, 12 h post-exposure): 1.09 dpm/mg
Percent tissue distribution (Esophagus, 12 h post-exposure): 0.01%
Conc. per mg wet tissue (Esophagus, 24 h post-exposure): 0.76 dpm/mg
Percent tissue distribution (Esophagus, 24 h post-exposure): 0.01%
Conc. per mg wet tissue (Esophagus, 96 h post-exposure): 0.25 dpm/mg
Percent tissue distribution (Esophagus, 96 h post-exposure): 0.003%
AUC_%Extrap (Fetus): 9.23%
Terminal elimination half-life (t1/2) (Fetus): 34.78 h
maternal serum exposure ratio (Fetus): 0.27
AUC_%Extrap (Heart): 6.21%
Terminal elimination half-life (t1/2) (Heart): 26.21 h
Conc. per mg wet tissue (Heart, 96 h post-exposure): 0.61 dpm/mg
AUC_%Extrap (Kidney): 13.09%
Terminal elimination half-life (t1/2) (Kidney): 35.41 h
AUC_%Extrap (Liver): 14.37%
Terminal elimination half-life (t1/2) (Liver): 42.13 h
Conc. per mg wet tissue (Liver, 0.21 h post-exposure): 55.77 dpm/mg
Percent tissue distribution (Liver, 0.21 h post-exposure): 17.36%
Conc. per mg wet tissue (Liver, 1.67 h post-exposure): 23.78 dpm/mg
Percent tissue distribution (Liver, 1.67 h post-exposure): 6.58%
Conc. per mg wet tissue (Liver, 12 h post-exposure): 11.09 dpm/mg
Percent tissue distribution (Liver, 12 h post-exposure): 1.88%
Conc. per mg wet tissue (Liver, 24 h post-exposure): 8.22 dpm/mg
Percent tissue distribution (Liver, 24 h post-exposure): 1.63%
Conc. per mg wet tissue (Liver, 96 h post-exposure): 1.16 dpm/mg
Percent tissue distribution (Liver, 96 h post-exposure): 0.41%
AUC_%Extrap (Lung): 4.66%
Terminal elimination half-life (t1/2) (Lung): 22.05 h
AUC_%Extrap (Mammary glands): 15.15%
Terminal elimination half-life (t1/2) (Mammary glands): 34.16 h
Conc. per mg wet tissue [12]: 5.39 dpm/mg
Percent tissue distribution [12]: 0.28%
Conc. per mg wet tissue [13]: 2.46 dpm/mg
Percent tissue distribution [13]: 1.21%
Conc. per mg wet tissue [14]: 0.74 dpm/mg
Percent tissue distribution [14]: 1.18%
Conc. per mg wet tissue [15]: 1.55 dpm/mg
Percent tissue distribution [15]: 0.90%
Conc. per mg wet tissue [16]: 1.67 dpm/mg
Percent tissue distribution [16]: 0.18%
AUC_%Extrap (Matter in Colon): 23.30%
Terminal elimination half-life (t1/2) (Matter in Colon): 40.00 h
AUC_%Extrap (Matter in amp colon): 13.09%
Terminal elimination half-life (t1/2) (Matter in amp colon): 30.46 h
AUC_%Extrap (Matter in duodenum): 26.66%
Terminal elimination half-life (t1/2) (Matter in duodenum): 34.63 h
Conc. per mg wet tissue [17]: 6.81 dpm/mg
Percent tissue distribution [17]: 0.44%
Conc. per mg wet tissue [18]: 51.01 dpm/mg
Percent tissue distribution [18]: 0.57%
Conc. per mg wet tissue [19]: 14.38 dpm/mg
Percent tissue distribution [19]: 0.16%
Conc. per mg wet tissue [20]: 16.72 dpm/mg
Percent tissue distribution [20]: 0.19%
Conc. per mg wet tissue [21]: 0.68 dpm/mg
Percent tissue distribution [21]: 0.33%
AUC_%Extrap (Matter in intestine): 2.18%
Terminal elimination half-life (t1/2) (Matter in intestine): 17.41 h
Conc. per mg wet tissue [22]: 10.76 dpm/mg
Percent tissue distribution [22]: 0.70%
Conc. per mg wet tissue [23]: 1.07 dpm/mg
Percent tissue distribution [23]: 4.97%
Conc. per mg wet tissue [24]: 0.75 dpm/mg
Percent tissue distribution [24]: 1.53%
Conc. per mg wet tissue [25]: 13.86 dpm/mg
Percent tissue distribution [25]: 2.58%
Conc. per mg wet tissue [26]: 0.41 dpm/mg
Percent tissue distribution [26]: 0.02%
AUC_%Extrap (Matter in stomach): 4.07%
Terminal elimination half-life (t1/2) (Matter in stomach): 16.50 h
Conc. per mg wet tissue [27]: 28.20 dpm/mg
Percent tissue distribution [27]: 0.47%
Conc. per mg wet tissue [28]: 5.71 dpm/mg
Percent tissue distribution [28]: 0.06%
Conc. per mg wet tissue [29]: 1.71 dpm/mg
Percent tissue distribution [29]: 0.09%
Conc. per mg wet tissue [30]: 1.57 dpm/mg
Percent tissue distribution [30]: 1.52%
Conc. per mg wet tissue [31]: 0.18 dpm/mg
Percent tissue distribution [31]: 0.04%
AUC_%Extrap (Muscle): 96.68%
Terminal elimination half-life (t1/2) (Muscle): 1231.42 h
Conc. per mg wet tissue (Muscle, 0.21 h post-exposure): 1.58 dpm/mg
Percent tissue distribution (Muscle, 0.21 h post-exposure): 28.65%
Conc. per mg wet tissue (Muscle, 96 h post-exposure): 1.58 dpm/mg
AUC_%Extrap (Ovary): 25.93%
Terminal elimination half-life (t1/2) (Ovary): 46.53 h
Conc. per mg wet tissue (Ovary, 0.21 h post-exposure): 19.85 dpm/mg

From PMC12794188, “Maternal–Fetal Transfer and Toxicokinetics of 2,2′,5,5′-Tetrachlorobiphenyl, [^14C]-PCB52, Following Intratracheal Administration” (Chemical Research in Toxicology, 2025)
